Test results as given in US9017935B2, “HIV-1 latency model for high throughput screening” (priority 2005, dated 2015).

Key:
latent HIV-1 proviruses = conditions: background, literature; cited from earlier work
[1] = recently reported (ref. 43); cited from earlier work
[2] = tested on: latent HIV-1 vector provirus in NLE-S-G infected SupT1 cells; test: Flow cytometry of GFP positive cells, mass population of NLE-S-G infected SupT1 cells; assay type: cell-based; conditions: mass population three weeks post-infection (2% before treatment), TNF-α 100 ng/ml, analyzed forty-eight hours after exposure
Excerpt: FIG. 2. Infection of SupT1 cells by NLE^-S-G vector virus. (A) The upper panels depict uninfected SupT1 cells. The lower panels show SupT1 cells that have been infected with NLE-S-G virus. The phase contrast (left panels) and fluorescence microscopy (right panels) images were captured five days post-infection. (B) Flow cytometric analysis of SupT1 cells either mock infected or infected with NLE^−S-G analyzed at day five post-infection or three weeks post-infection. […] Three weeks post infection mass population of unsorted NLE^−S-G infected SupT1 cells (10^6 cells/ml) were stimulated with TNF-α (100 ng/ml). Cells were analyzed forty-eight hours after exposure. Numbers represent the percentages of gfp positive cells. (C) SEAP activity in the conditioned media from NLE^−S-G infected unsorted SupT1 cells (10^6 cells/ml) four days, three weeks and one month post-infection. Three weeks post-infection, a sample (10^6 cells/ml) of a mass population of NLE^−S-G infected SupT1 cells was treated with TNF-α (100 ng/ml) and analyzed four days post activation. RLU, relative light units.
The infected mass population of cells was next tested for its ability to establish a latent infection. The infected mass population of SupT1 cells was maintained in culture for one month. […] This was also reflected in the reduction of SEAP expression by the third week (FIG. 2C). […]

[3] = tested on: latent HIV-1 vector provirus in 19ST1NLESG cells; test: SEAP assay for late gene expression, 19ST1NLESG cells; assay type: cell-based; conditions: TNF-α 50 ng/ml, day 2 post treatment
Description: (§1) FIG. 3. Reactivation of early and late viral gene expression in three clonal cell lines by TNF-α. (A) 19ST1NLESG, 24ST1NLESG, and 29ST1NLESG cells (10^6/ml) were exposed to TNF-α (50 ng/ml) and four days after gfp expressing cells were analyzed by flow cytometry. The left panels show the histograms of unstimulated cells, and the right panels represent the histogram analysis of TNF-α (50 ng/ml) stimulated cells. Numbers show the percentages of gfp positive cells. (B) SEAP in the cultured media of untreated and TNF-α (50 ng/ml) stimulated 19ST1NLESG, 24ST1NLESG, 29ST1NLESG cells two and four days post plating. (C) Fold induction of SEAP expression in 19ST1NLESG, 24ST1NLESG, and 29ST1NLESG cells (10^6/m1) after stimulation with TNF-α (50 ng/ml). Readings were taken on the second and fourth days post activation. […]
(§2) In order to provide a well characterized system to identify molecules that can activate latent virus, SupT1 cell clones harboring latent vector provirus were isolated. […] Even at 0.1 ng/ml of TNF-α induction could be detected yielding SEAP activity 4-fold above background (FIG. 4).
(§3) 1×10^6 or 1×10^5 cells from the clonal cell lines or mass populations of infected cells were resuspended in RPMI media with or without the activator. […] The relative light units (RLU) were measured with a tube luminometer (Turner Designs 20/20) or a MLX Microtiter Plate Luminometer (DYNEX Technologies).

[4] = tested on: latent HIV-1 vector provirus in NLE-S-G infected SupT1 cells; test: SEAP assay, mass population of NLE-S-G infected SupT1 cells; assay type: cell-based; conditions: mass population three weeks post-infection, TNF-α 100 ng/ml, four days post activation
Excerpt: The infected mass population of cells was next tested for its ability to establish a latent infection. The infected mass population of SupT1 cells was maintained in culture for one month. […] This was also reflected in the reduction of SEAP expression by the third week (FIG. 2C). It was shown in previous studies that tumor necrosis factor (TNF)-α could activate HIV-1 virus production from latently infected cell lines (30).
1×10^6 or 1×10^5 cells from the clonal cell lines or mass populations of infected cells were resuspended in RPMI media with or without the activator. At the indicated day post plating, samples were taken to determine the activity of SEAP. The assay was performed using a SEAP Detection kit (BD Biosciences, Palo Alto, Calif.) according to the manufacturer's protocol. The relative light units (RLU) were measured with a tube luminometer (Turner Designs 20/20) or a MLX Microtiter Plate Luminometer (DYNEX Technologies).

[5] = tested on: latent HIV-1 vector provirus in 24ST1NLESG cells; test: Quantitative real-time RT-PCR of HIV-1 mRNA, 24ST1NLESG cells; assay type: cell-based; conditions: TNF-α 50 ng/ml, day 4 post-stimulation, normalized to β-actin
Description: FIG. 6. Real-time RT-PCR for relative quantification of HIV-1 mRNA levels in 24ST1NLESG cells before and after activation from latency. Quantitative real-time RT-PCR was performed with RNA isolated from 24ST1NLESG cells (10^6/ml) following one and four days after stimulation with TNF-α (50 ng/ml). cDNA was synthesized with polyT oligo, and the reactions were completed with primers to viral (Rev2) and cellular (β-actin) genes with SYBR green detection. The ‘Delta-delta method’ (PE Applied Biosystems) was used to compare the relative expression results (ΔCT) between the values obtained from the RNA samples from stimulated cells to the values obtained from RNA isolated from untreated cells. The results were normalized to the expression of β-actin. […]
The consistent reactivation of viral genes as evidenced by the pattern of expression of the three markers assayed correlated with an increase in the relative levels of total viral mRNA. The relative amount of total HIV-1 mRNA was determined by quantitative real-time PCR using primers to the second exon of rev (Rev2). […] Therefore, only the level of mature polyadenylated RNA was detected.
The relative ratio of viral RNA after stimulation of 24ST1NLESG latent cells was determined as described in the Examples using the relative RNA results obtained for the unstimulated 24ST1NLESG cells as a control. β-actin was used as a reference gene. […]

[6] = tested on: latent HIV-1 vector provirus in 24ST1NLESG cells; test: HIV-1 p24gag ELISA, 24ST1NLESG cells; assay type: cell-based; conditions: TNF-α 50 ng/ml
Description: FIG. 5. HIV-1 Gag p24 protein production in 24ST1NLESG cells. HIV-1 Gag p24 protein was detected in the cultured media of untreated and TNF-α (50ng/ml) treated 24ST1NLESG cells (10^6/ml) two and four days post-plating. Results shown are the means and standard deviations of one or two representative experiments.
To further characterize the 24ST1NLESG cell line, p24^gag expression was monitored using the ELISA after treatment with TNF-α (50 ng/ml) (FIG. 5).
HIV gag transfer assay. 1×10^6 SupT1 infected cells (latent mass population and clonal cell lines) were plated followed by harvesting supernatant one week later. Samples were collected both from TNF-α activated and untreated cells. They were passed through a 0.45-μm pore-size filter and used to inoculate […] 10^6 parental SupT1 cells for 24 h. The cells were washed twice with PBS and resuspended in fresh media. The same process was repeated once again with conditioned media from the targeted parental cells, and a new batch of SupT1 cells was treated. Passing the conditioned media over two sets of virgin SupT1 cells helps to assure that the carryover of gag protein in the samples will be eliminated and only the de novo synthesized protein, if present, will be assessed. […] Samples were considered virus free when the p24^gag concentration was below the detection threshold, which for this assay, was determined to be 10 pg/ml.

[7] = tested on: latent HIV-1 vector provirus in 29ST1NLESG cells; test: SEAP assay for late gene expression, 29ST1NLESG cells; assay type: cell-based; conditions: TNF-α 50 ng/ml, day 2 post treatment
Description: as §1, §2, §3

[8] = tested on: latent HIV-1 vector provirus in 24ST1NLESG cells; test: SEAP assay for late gene expression, 24ST1NLESG cells; assay type: cell-based; conditions: for fold induction in SEAP activity: TNF-α 50 ng/ml
Description: FIG. 3. Reactivation of early and late viral gene expression in three clonal cell lines by TNF-α. (A) 19ST1NLESG, 24ST1NLESG, and 29ST1NLESG cells (10^6/ml) were exposed to TNF-α (50 ng/ml) and four days after gfp expressing cells were analyzed by flow cytometry. The left panels show the histograms of unstimulated cells, and the right panels represent the histogram analysis of TNF-α (50 ng/ml) stimulated cells. Numbers show the percentages of gfp positive cells. (B) SEAP in the cultured media of untreated and TNF-α (50 ng/ml) stimulated 19ST1NLESG, 24ST1NLESG, 29ST1NLESG cells two and four days post plating. (C) Fold induction of SEAP expression in 19ST1NLESG, 24ST1NLESG, and 29ST1NLESG cells (10^6/m1) after stimulation with TNF-α (50 ng/ml). Readings were taken on the second and fourth days post activation. Results shown are the means and standard deviations of one of three representative experiments.
FIG. 4. SEAP activation in 24ST1NLESG cells at different concentrations of TNF-α. SEAP synthesis by 24ST1NLESG cells (10^6/ml) four days post-activation with various concentrations (0.1 to 100 ng/ml) of TNF-α. The numbers above the bars show the fold induction of enzymatic activity calculated as ratio between the average value of RLU per sample induced cells compared to the mean RLU value of uninduced cells. RLU, relative light units. Results shown are the means and standard deviations of one of three representative experiments.
as §2, §3

Molecule | activation of latent virus (latent HIV-1 proviruses) | cytotoxicity [1] | number of GFP-positive cells after treatment [2] | fold induction in SEAP activity [3] | increase in SEAP activity [4] | increase in relative ratio of viral RNA [5] | concentration of p24gag above background ([6]; 2 days post-activation) | concentration of p24gag above background ([6]; 4 days post-activation) | fold induction in SEAP activity [7] | SEAP activity above background ([8]; 0.1 ng/ml TNF-α, four days post-activation) | fold induction in SEAP activity ([8]; day 2 post treatment) | fold induction in SEAP activity ([8]; day 4)
CCCCCCCCCCCCCC(=O)O[C@@H]1[C@@H](C)[C@@]2(O)[C@@H](C=C(CO)C[C@]3(O)C(=O)C(C)=C[C@@H]23)[C@@H]2C(C)(C)[C@]12OC(C)=O [PMA, phorbol 12-myristate 13-acetate] | could stimulate latent virus |  |  |  |  |  |  |  |  |  |  | 
CC(=O)O[C@@]12C[C@@H](C)[C@@]3(O)[C@@H](C=C(CO)C[C@]4(O)C(=O)C(C)=C[C@@H]34)[C@@H]1C2(C)C [prostratin] | able to activate latent virus | significant cytotoxicity |  |  |  |  |  |  |  |  |  | 
TNF-α |  |  | 19% | approximately 50 fold | 400 fold | at least 100 fold | 50 fold | 100 fold | ~150 fold | 4 fold | ~400 fold | approximately 600 fold
